Patent publication US20260231939A1, “ARTHROPOD CONTROL COMPOSITIONS” (Firmenich SA, priority 2022, published 2026)
Like-named read-outs stand apart in the source and are kept apart here.

Legend:
Aedes aegypti = assay: Warm Body assay, mosquito landings on the baited warm body; type: in vivo; details: for pest or weed control at 16 µg/mL / pest or weed control at 400 µg/mL / pest or weed control at 10000 µg/mL: Aedes aegypti, read-out: Percentage of repellence of mosquitoes landing on the warm body; for repellence efficacy compared with the saturated counterpart: Warm Body assay, paired t-test where given
Experimental: (§1) The controlling effect according to the present invention was assessed using an adapted Warm Body assay as defined in Kröber T, Kessler S, Frei J, Bourquin M, Guerin P M. 2010. J Am Mosq Control Assoc. 26:381-386. In this in-vitro assay the number of mosquito landing on a warm body, simulating an attractive host treated with the tested stimuli, was measured in order to assess the repellence effect.
The published protocol has been adapted as the switch from Anopheles gambiae to Ae. aegypti led to a decrease of mosquitoes placed in the tested cage due to the size difference (i.e. 30 mosquitoes instead of 50) and to an increase of lighting since Ae. aegypti is a diurnal mosquitoes (i.e. 150 lux instead of 4 lux).
(§2) On the sandblasted glass Petri dish covering the warm body (28.3 cm^2), 100 μL of the compounds diluted at different concentrations in ethanol was applied. The number of mosquito landing on the warm body was counted for each stimulus. Number of landings on pure ethanol (solvent) control treatment was used to normalize the data and calculate the percentage of repellence.

Ae. aegypti = assay: Arm-in-cage test on human volunteers; type: in vivo, Aedes aegypti
Experimental: (§3) The Arm in the box method was adapted from the WHO Guidelines for efficacy testing of mosquito repellents for human skin (WHO/CDS/NTD/WHOPES/2009.4) and/or based on EU biocide testing guidelines (Guidance on the Biocidal Products Regulation. Vol. II Efficacy—Assessment and Evaluation (Parts B+C), v. 4.0. December 2021). The readiness of 200 hungry female mosquitoes Ae. aegypti or 50 An. gambiae to probe is assessed by inserting the untreated arm of human volunteers into the cage (40×40×40 cm) for 30 seconds (negative control) in order to determine probing activity. Then, the product is applied onto the skin of the forearm of the human volunteer (1 mL per 600 cm^2) and after 5 minutes (Ae. aegypti) or 30 minutes (An. gambiae), this arm is inserted into the cage and exposed for 3 minutes. The assay take place in temperature (27±2° C.) and humidity (80±10% RH) regulated room on three different human volunteers.

Anopheles gambiae = assay: Warm Body assay, mosquito landings on the baited warm body; type: in vivo
Experimental: Anopheles gambiae is also a model organism as it is anthropophilic and transmits malaria.
as §1, with “effect. […]” for “effect.”
as §2

Ixodes ricinus = assay: Warm Plate Assay for ticks
An. gambiae = assay: Arm-in-cage test on human volunteers; type: in vivo, Anopheles gambiae; details: for time during which protection is 100%, i.e. no mosquito landing / Arm-in-cage repellence: 20% in ethanol; for time during which mosquito protection / repellence is >90%: 20% solution in ethanol; for Arm-in-cage repellence, mean of three volunteers: unsaturated δ-lactones at 20%
Experimental: as §3

SMILES: CCC=CCCC1CCC(=O)O1 (centres unmarked) [5-hex-3-enyloxolan-2-one]
- pest or weed control at 16 µg/mL (Aedes aegypti; γ-lactones, 0.016 mg/mL in ethanol): 0%
- pest or weed control at 400 µg/mL (Aedes aegypti; γ-lactones, 0.4 mg/mL in ethanol): 81%
- pest or weed control at 10000 µg/mL (Aedes aegypti; γ-lactones, 10 mg/mL in ethanol): 95%
- repellence efficacy compared with the saturated counterpart (Aedes aegypti): significantly higher
- Arm-in-cage repellence (Ae. aegypti; 20% in ethanol, 5 min post application): 98.5% ±
- Arm-in-cage repellence (Ae. aegypti; 20% in ethanol, 1 h post application): 97.0% ±
- Arm-in-cage repellence (Ae. aegypti; 20% in ethanol, 2 h post application): 93.0% ±
- Arm-in-cage repellence (Ae. aegypti; 20% in ethanol, 3 h post application): 88.3% ±
- Arm-in-cage repellence (Ae. aegypti; 20% in ethanol, 4 h post application): 79.5% ±
- time during which mosquito protection is >90% (Ae. aegypti; 20% solution in ethanol): 2 h
- Percentage of repellence of mosquitoes landing on the warm body (Anopheles gambiae; 0.08 mg/mL): 12%
- Percentage of repellence of mosquitoes landing on the warm body (Anopheles gambiae; 0.178 mg/mL): 38%
- Percentage of repellence of mosquitoes landing on the warm body (Anopheles gambiae; 0.267 mg/mL): 95%
- Percentage of repellence of mosquitoes landing on the warm body (Anopheles gambiae; 0.598 mg/mL): 93%
- Percentage of repellence of mosquitoes landing on the warm body (Anopheles gambiae; 0.89 mg/mL): 100%
- Percentage of repellence of mosquitoes landing on the warm body (Anopheles gambiae; 2 mg/mL): 100%
- Percentage of repellence of mosquitoes landing on the warm body (Anopheles gambiae; 4.47 mg/mL): 100%
- Percentage of repellence of mosquitoes landing on the warm body (Anopheles gambiae; 10 mg/mL): 100%
- Percentage of repellence of ticks on the warm plate (Ixodes ricinus; 0.40 mg/mL): 17%
- Percentage of repellence of ticks on the warm plate (Ixodes ricinus; 10 mg/mL): 100%
- time during which protection is 100%, i.e. no mosquito landing (An. gambiae): 4 h
- Arm-in-cage repellence (An. gambiae; 30 min post application): 100% ±
- Arm-in-cage repellence (An. gambiae; 1 h post application): 100% ±
- Arm-in-cage repellence (An. gambiae; 2 h post application): 100% ±
- Arm-in-cage repellence (An. gambiae; 3 h post application): 100% ±
- Arm-in-cage repellence (An. gambiae; 4 h post application): 100% ±
- Arm-in-cage repellence (An. gambiae; 5 h post application): 97.85% ±
- Arm-in-cage repellence (An. gambiae; 6 h post application): 80.07% ±
- time during which mosquito protection / repellence is >90% (An. gambiae): 5 h

SMILES: CC=CCCC1CCCC(=O)O1 (centres unmarked) [6-pent-3-enyloxan-2-one]
- pest or weed control at 16 µg/mL (Aedes aegypti; δ-lactones, 0.016 mg/mL): 20%
- pest or weed control at 400 µg/mL (Aedes aegypti; δ-lactones, 0.4 mg/mL): 98%
- pest or weed control at 10000 µg/mL (Aedes aegypti; δ-lactones, 10 mg/mL): 100%
- repellence efficacy compared with the saturated counterpart (Aedes aegypti): significantly more efficient
- repellence efficacy compared with saturated 6-pentyloxan-2-one (Ae. aegypti; Arm-in-Cage, 20% in ethanol, paired t-test, FIG. 5): more efficient
- repellence efficacy compared with the saturated counterpart (Anopheles gambiae; Warm Body assay, paired t-test, FIG. 4): significantly more efficient
- Percentage of repellence of ticks on the warm plate (Ixodes ricinus; 0.40 mg/mL): 83%
- Percentage of repellence of ticks on the warm plate (Ixodes ricinus; 2 mg/mL): 100%
- Percentage of repellence of ticks on the warm plate (Ixodes ricinus; 10 mg/mL): 100%
- lower dose at which 100% of repellent efficacy is already reached (Ixodes ricinus; in vivo): 0.2%
- time during which protection is 100%, i.e. no mosquito landing (An. gambiae): 3 h
- time during which mosquito protection / repellence is >90% (An. gambiae): 8 h
- Arm-in-cage repellence, mean of three volunteers (An. gambiae; 30 min): 100% ±
- Arm-in-cage repellence, mean of three volunteers (An. gambiae; 1 h): 100% ±
- Arm-in-cage repellence, mean of three volunteers (An. gambiae; 2 h): 100% ±
- Arm-in-cage repellence, mean of three volunteers (An. gambiae; 3 h): 100% ±
- Arm-in-cage repellence, mean of three volunteers (An. gambiae; 4 h): 99.0% ±
- Arm-in-cage repellence, mean of three volunteers (An. gambiae; 5 h): 98.4% ±
- Arm-in-cage repellence, mean of three volunteers (An. gambiae; 6 h): 98.3% ±
- Arm-in-cage repellence, mean of three volunteers (An. gambiae; 7 h): 94.9% ±
- Arm-in-cage repellence, mean of three volunteers (An. gambiae; 8 h): 94.7% ±
